Entries after “also recorded” stand apart in the source; their conditions may differ. Where no end group is shown, it is not given here.
Columns and labels:
prostate cancer cells = assay: Cytotoxicity against prostate cancer cells (summary); format: cell-based; details: hormone-dependent and hormone-refractory prostate cancer cells
Procedure: (§1) For proliferation, cells were grown in medium containing 2% FBS extracted with dextran-coated charcoal (DCC). 48 hours later, ethanol or 1 nM R1881 was added to the cells followed by peptide treatment. The MTT assay (Sigma) was used as before to determine cell number. For apoptosis, 5000 cells were seeded in 96-well plates and treated with Vehicle (DMSO), Peptide A-8R (25 µM), Etoposide (50 µM) (Sigma) at different time points. The Caspase (3/7) activity was measured using Apo-ONE Homogeneous Caspase-3/7 assay kit (Promega). PARP cleavage was also used to measure apoptosis, and is described below.

C81 cells = assay: Proliferation/cytotoxicity, castration-resistant C81 cells (MTT); format: cell-based; details: different concentrations; Fig. 3C; averages of three independent experiments; P<0.03 vs Vehicle
Procedure: (§2) LNCaP, C81, PC-3 and Cos cells were grown as previously described. CWR-22Rv1 cells were cultured in RMPI-1640 medium with 10% FBS and 50 µg/ml Gentamicin (Gibco). Control siRNA, sGCα1 siRNA and AKT siRNA (Dharmacon) at 50 nM final concentration was transfected into cells using Lipofectamine siMAX (Invitrogen).
as §1
(§3) Vehicle or different concentrations of Peptide A-8R or C-8R, as shown, was added to (A) hormone-dependent LNCaP cells grown in 2% serum without or with 1 nM R1881, (C) castration-resistant C81 or CWR-22Rv1 cells, or (E) sGCα1-deficient PC-3 or Cos cells. Cell number was measured after various days of incubation. Data points represent averages of three independent experiments plus standard deviations. […]

PC-3 cells = assay: Proliferation/cytotoxicity, sGCα1-deficient PC-3 cells (MTT); format: cell-based; details: different concentrations, Fig. 3E
Procedure: as §2, §1, §3

[1] = Behavior and weight of mice in the animal studies; format: in vivo, mouse
Procedure: (§4) 2×10^6 C81 cells in 50 µL of growth medium was mixed with 50 µL Matrigel (BD Biosciences) and injected into both flanks of 4–6-week old SCID male mice. When tumor sizes reached 200 mm^3, 50 µL of Peptide A-8R (40 mg Peptide A-8R/Kg of animal) or Vehicle (DMSO) was directly injected into the tumors every other day. Injections were stopped after 5 times and tumors were measured every 3 days. Mice were euthanized after 3 weeks and tumors were excised. All procedures were approved by the University of Toledo Division of Lab Animal Recourses (DLAR). Protein extracts were prepared by boiling the tumor tissue in 3× SDS buffer, and evaluated by SDS-PAGE gel.
(§5) This study was carried out in strict accordance with the recommendations in the Guide for the Care and Use of Laboratory Animals of the National Institutes of Health. The protocol was approved by the Institutional Animal Care and Use Committee of the University of Toledo (Protocol Number: 106418). During the experiments all animals were monitored daily for morbidity and all efforts were made to minimize suffering. At the end of the study all animals were euthanized using inhalation of carbon dioxide, after which surgery was performed to excise tumors from all animals.

C81 xenograft tumors = assay: C81 mouse xenograft tumor study; format: in vivo
Procedure: as §4, §5
(A) Mouse xenograft tumors derived from C81 cells were treated with Vehicle or Peptide A-8R, after which they were allowed to grow for an additional three weeks without treatment. Data points represent average tumor size of three animals for each treatment plus standard deviations. Note that there is a statistical difference (P<0.00004) in average tumor size for each day of tumor measurement. Arrow represents day of last injection of Vehicle or Peptide A-8R. […] Bar graphs represent averages of each set of three tumors plus standard deviations. Asterisks indicate statistical significance (P<0.02). (C) Two tumors, one on each flank of the same animal, were treated with either Vehicle or Peptide A-8R.

p15, p21, CDK6 = assay: Expression of cell-cycle regulatory proteins (Western blot), C81 cells; format: cell-based; details: 25 µM, Fig. S7
Procedure: Western blotting was performed as described using primary antibodies against sGCα1 (Cayman Chemical), pan-Akt (Cell Signaling Technology), phospho-AKT (S473, T308) (Cell Signaling Technology), phospho-PDK1 (Cell Signaling Technology), phospho-GSK-3β (Cell Signaling Technology), PARP (Cell Signaling Technology), and β-Actin (Abcam).
Supplementary file pone.0064189.s007.tif: Figure S7 Peptide A-8R induces expression of p15 and p21 in prostate cancer cells. C81 cells treated with 25 µM Peptide A-8R or Peptide C-8R for different times, as shown, monitored for expression of p15, p21, and CDK6 by Western blotting (antibodies from Cell Signaling Technology). Note that β-actin was used to control for protein loading. (TIF) Click here for additional data file.

LNCaP xenograft tumors = assay: LNCaP mouse xenograft tumor study; format: in vivo; details: direct intratumoral injection; three animals per treatment; P<0.0005; Fig. S8
Procedure: as §4, with “2×10^6 C81 cells in 50 µL of growth medium was mixed with 50 µL Matrigel (BD Biosciences) and injected into both flanks of 4–6-week old SCID male mice.” left out
Mouse xenograft tumors derived from LNCaP cells were treated with Vehicle or Peptide A-8R, after which they were allowed to grow for an additional three weeks without treatment. Data points represent average tumor size of three animals for each treatment plus standard deviations. Note that there is a statistical difference (P<0.0005) in average tumor size for each day of tumor measurement. Arrow represents day of last injection of Vehicle or Peptide A-8R. (TIF) Click here for additional data file.

Substance: Ac-TFCKAFPFHIIRRRRRRRR [Peptide A-8R]
- cytotoxic activity against prostate cancer cells (summary) (prostate cancer cells): strongly cytotoxic to prostate cancer cells, rapidly inducing apoptosis; also recorded: strongly cytotoxic to sGCα1-expressing prostate cancer cells, but not to sGCα1-deficient cells; also recorded: showed the strongest activity
- suppression of growth of C81 cells (C81 cells): very effective at suppressing the growth of C81 cells (Fig. 3C), matching the effect on hormone-dependent LNCaP cells
- effect on PC-3 cells (PC-3 cells): little to no effect
- effect on behavior or weight of mice [1]: no effect on the behavior or weight of the mice
- tumor growth during five injections, C81 xenograft (C81 xenograft tumors; 40 mg/Kg intratumoral, every other day, 5 times, Fig. 6A, 6B, three animals per treatment, P<0.00004): stopped tumor growth and actually caused some tumor regression during the five injections of peptide
- anti-tumor activity, C81 xenograft (summary) (C81 xenograft tumors; intra-tumoral injection): able to stop tumor growth; also recorded: blocks the growth of castration-resistant prostate tumors; also recorded: strong anti-cancer activity
- tumor growth three weeks after treatment stopped, C81 xenograft (C81 xenograft tumors; three weeks after last injection, Vehicle tumors grew more than three-fold, Fig. 6A): did not grow at all three weeks after Peptide treatment was stopped
- tumor size in same animal, Peptide- vs Vehicle-treated flank (C81 xenograft tumors; two tumors, one per flank of same mouse, Fig. 6C): markedly smaller than the Vehicle-treated tumor
- expression of CDK6 (p15, p21, CDK6): unchanged
- expression of p15 and p21 (p15, p21, CDK6): expression increased
- anti-tumor activity, LNCaP xenograft (LNCaP xenograft tumors): able to stop tumor growth; also recorded: strong anti-tumor activity; also recorded: blocks the growth of LNCaP prostate tumors
